According to patent US10745365B2, “Luminogenic and fluorogenic compounds and methods to detect molecules or conditions” (Promega Corporation, priority 2005, dated 2020):
Like-named read-outs stand apart in the source and are kept apart here.

Assays:
[1] = biological target: T1, QuantiLum Luciferase (firefly luciferase) (Photinus pyralis, UniProt P08659); assay: pH dependence of firefly luciferase signal with luciferin or 5′-fluoroluciferin; type: biochemical
T1 construct: purchased Promega Corporation El 70
T1 sequence (P08659 whole entry): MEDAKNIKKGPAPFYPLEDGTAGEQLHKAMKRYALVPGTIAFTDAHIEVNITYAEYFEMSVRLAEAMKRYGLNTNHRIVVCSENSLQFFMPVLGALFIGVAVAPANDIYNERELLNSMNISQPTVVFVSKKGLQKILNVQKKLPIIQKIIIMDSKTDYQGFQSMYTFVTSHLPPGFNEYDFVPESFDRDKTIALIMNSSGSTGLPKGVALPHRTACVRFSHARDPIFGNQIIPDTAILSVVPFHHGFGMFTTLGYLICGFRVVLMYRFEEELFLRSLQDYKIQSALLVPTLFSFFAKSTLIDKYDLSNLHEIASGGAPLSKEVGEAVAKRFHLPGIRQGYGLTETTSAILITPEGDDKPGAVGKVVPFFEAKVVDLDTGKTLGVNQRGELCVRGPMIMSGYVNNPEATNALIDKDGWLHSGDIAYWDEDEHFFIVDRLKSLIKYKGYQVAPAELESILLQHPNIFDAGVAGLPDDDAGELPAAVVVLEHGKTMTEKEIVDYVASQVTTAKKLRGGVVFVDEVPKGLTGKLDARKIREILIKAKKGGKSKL
Description: Aliquots of these solutions were then placed into tubes and buffers were added to 80 mM.
Luminescent reactions were initiated by combining 100 μl of the luciferase-containing solution and 100 μl of the luciferase detection reagents. Luminescence was integrated over 1 second per sample using the Veritas plate luminometer (Turner Bio Systems). N=3 for each result.

[2] = biological target: T1, QuantiLum Luciferase (firefly luciferase); assay: Luminescence spectra of fluoroluciferins; type: biochemical; conditions: pH 7.4
Description: All compounds except fluoroluciferin and ATP were purchased from Sigma Chemical. ATP was purchased from Amersham/Invitrogen.
Spectra were measured using 0.5s integration with 1 nm increments on a Spex Fluorolog.

[3] = biological target: T1, QuantiLum Luciferase (firefly luciferase); assay: ATP titration of luciferase reactions with luciferin and fluoroluciferins; type: biochemical
Description: AU compounds except 5’-fluoroluciferin and DTT were purchased from Sigma Chemical. To some of this reagent 5 mM ATP (Amersham/Invitrogen) was added, then serially diluted by half-logs to 0.05 mM. Reactions were initiated by adding equal volumes (0.1 ml) of reagent and DMEM medium (Gibco/Invitrogen) containing 0.1% Prionex® (Pentapharm) and 1.4×10-5 mg/ml QuantiLum™ Luciferase (Promega Corporation).
For ATP titrations for 7′-fluoroluciferin, reagent was created containing 200 mM HEPES, 200 mM PIPES, 1 mM CDTA, 0.5% Tergitol NP-9, 0.03% Benzyl dodecyldimethyl ammonium bromide, 30 mM thiourea, 10 mM magnesium sulfate, and 0.15 mM 7′-fluoroluciferin. This solution was separated into 3 parts and pH of the reagents were 7.4, 7.2 and 6.7. To some of this reagent, 10 mM ATP (Amersham/Invitrogen) was added. The ATP was serially diluted by quarter-logs from 10 mM to 0.32 mM.
Reactions were initiated by adding equal volumes (0.03 ml) of reagent and DMEM medium (Gibco/Invitrogen) containing 0.1% Prionex® (Pentapharm) and 1.4×10-5 mg/ml QuantiLum™ Luciferase (Promega Corporation).
Luminescence was measured for 0.5 seconds per well using Berthold Orion luminometer.

porcine esterase = assay: Two-step luminescent carboxylesterase assay with D-luciferin esters; type: biochemical; conditions: two step luminescent assay format
S. japonica GST = biological target: T2, S. japonica GST (Schistosoma japonicum, UniProt P08515); type: biochemical; conditions: for Light Reading: 45 min; for Raw Data light reading: S. japonica GST, 2 mM glutathione
T2 construct: purchased Sigma Chemical Company G5663
T2 sequence (P08515 whole entry): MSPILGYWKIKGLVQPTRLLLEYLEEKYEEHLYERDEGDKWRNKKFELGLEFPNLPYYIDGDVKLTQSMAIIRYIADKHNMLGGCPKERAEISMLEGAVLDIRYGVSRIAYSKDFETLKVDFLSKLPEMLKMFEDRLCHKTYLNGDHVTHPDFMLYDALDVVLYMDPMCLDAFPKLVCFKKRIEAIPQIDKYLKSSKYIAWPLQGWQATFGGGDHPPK
Description: (§1) The derivative was tested in a two step format. For the first step, the derivative was added to a mixture with one of three GSTs with or without glutathione. At different times after the reaction was initiated, a portion was removed and mixed with a luciferase reaction mixture.
(§2) S. japonica GST: 1 vial with 3 mg GST (Part G5663, Sigma Chemical Company) was dissolved in 500 μl of 10 mM BisTris, pH 6.6.
(§3) The reactions (Table 1) were assembled by first adding the water and 1 M BisTris solutions in individual 0.5 ml microfuge tubes, then adding the other components except for the GST #3 solution. Finally, the GST #3 (FIG. 12) solution was added to the reactions, the resulting solution was mixed, and the time of addition noted.
Buffer stock solutions (1 M) of BisTris at pH 6.5, HEPES, pH 7.0, 7.5 and 8.0 and Tricine pH 8.5 were prepared by dissolving solid reagent obtained from Sigma Chemical Corporation and adjusting the pH to the desired value.
The GST #3 addition was performed last and the solutions were mixed immediately after addition of GST #3. […] After mixing, the light produced by the solution was measured using a Turner TD 20/20 luminometer.
The stock of S. japonica GST used in Example IA was diluted to 1 mg/ml with 10 mM BisTris pH 6.5.
The reactions were initiated by addition of GST #3 and mixing. […]

equine GST = assay: Two-step luminescent GST assay with equine GST; type: biochemical; conditions: for Raw Data light reading: Equine GST, 2 mM glutathione
Description: as §1, §2, §3
(§4) After assembly, the enzyme stock solutions were diluted 1:10 into 10 mM HEPES, pH 7.5 and the following additions were made to the reactions.
(§5) The reactions were allowed to proceed for 30 minutes at room temperature and then 100 μl of P450 Glo reagent was added to each reaction and the light produced by the subsequent solution was measured on a Veritas luminometer.

[4] = Non-enzymatic conversion of luciferin derivative by glutathione (no GST) and buffer controls; type: biochemical; conditions: for Light Output: Table 4 reaction 1: BisTris pH 6.5, no glutathione, time post mixing in column head; for Light Reading: no enzyme, 45 min; for Glutathione Signal: glutathione alone minus buffer
Description: Buffer stock solutions (1 M) of BisTris at pH 6.5, HEPES, pH 7.0, 7.5 and 8.0 and Tricine pH 8.5 were prepared by dissolving solid reagent obtained from Sigma Chemical Corporation and adjusting the pH to the desired value. […]

GST M1-1 = biological target: T3, GST M1-1 (Homo sapiens, UniProt P09488, K173N); assay: Luminescent GST assay with GST M1-1; type: biochemical; conditions: for Raw Data light reading: GST M1-1, 2 mM glutathione
T3 construct: purchased Sigma
T3 sequence (P09488 1-218 K173N): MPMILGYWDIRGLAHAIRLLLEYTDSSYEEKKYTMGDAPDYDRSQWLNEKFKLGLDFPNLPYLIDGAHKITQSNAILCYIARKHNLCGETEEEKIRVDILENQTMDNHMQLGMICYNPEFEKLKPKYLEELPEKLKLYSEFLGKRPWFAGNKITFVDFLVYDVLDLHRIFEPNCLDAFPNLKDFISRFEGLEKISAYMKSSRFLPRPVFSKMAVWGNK

[5] = Control without MAO: fluorescence of the fluorogenic derivative (MAO substituted with H2O)
Description: The fluorescent signal was then measured (excitation/emission=355/460 nm) on a Fluoroskan Ascent plate fluorometer.
This 90 μl contained 35 μl 200 mM Tricine pH 8.3, 35 μl 200 mM Tricine pH 8.7 (or water), 10 μl 200 mM MgSO4, and 10 μl of each substrate dilution.

CYP2D6 = biological target: T4, CYP2D6 (Homo sapiens, UniProt P10635); assay: CYP2D6 inhibition assay with luciferin-6-methylether ethylene glycol ester; type: biochemical; conditions: substrate luciferin-6-methylether ethylene glycol ester
T4 construct: purchased Discovery Labware (BD/Gentest); host or cells: insect cell expression system (membrane fractions)
T4 sequence (P10635 whole entry): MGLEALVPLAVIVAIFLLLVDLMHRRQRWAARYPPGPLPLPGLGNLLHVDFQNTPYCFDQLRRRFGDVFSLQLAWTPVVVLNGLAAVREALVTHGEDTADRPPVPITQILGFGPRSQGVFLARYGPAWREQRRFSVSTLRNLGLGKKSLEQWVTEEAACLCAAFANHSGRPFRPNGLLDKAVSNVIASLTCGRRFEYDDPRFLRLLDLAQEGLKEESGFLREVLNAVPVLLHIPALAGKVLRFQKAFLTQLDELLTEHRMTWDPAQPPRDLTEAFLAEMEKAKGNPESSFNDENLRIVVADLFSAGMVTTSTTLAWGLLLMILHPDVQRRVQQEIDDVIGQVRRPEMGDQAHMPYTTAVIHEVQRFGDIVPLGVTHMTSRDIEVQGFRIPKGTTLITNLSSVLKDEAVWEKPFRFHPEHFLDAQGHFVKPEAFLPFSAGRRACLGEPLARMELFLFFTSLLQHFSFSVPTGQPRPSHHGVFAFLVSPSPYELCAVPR

GST A1-1 = GST A1-1 (Homo sapiens, UniProt P08263); conditions: for Raw Data light reading: GST A1-1, 2 mM glutathione
Sequence of GST A1-1 (P08263 whole entry): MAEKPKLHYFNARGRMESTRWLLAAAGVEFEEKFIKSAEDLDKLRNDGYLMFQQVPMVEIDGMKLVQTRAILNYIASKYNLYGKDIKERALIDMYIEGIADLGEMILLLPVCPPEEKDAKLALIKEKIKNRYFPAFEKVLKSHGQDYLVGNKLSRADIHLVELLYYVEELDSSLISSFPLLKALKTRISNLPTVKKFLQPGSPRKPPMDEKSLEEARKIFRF
Description: Enzyme and glutathione stock solutions are described in Example IA.
as §4
GST A1-1 (Sigma) is an enzyme found in a few body tissues, including kidney, intestine, lung and liver. GST M1-1 (Sigma) is a type b allelic variant, which corresponds to GST psi purified from human liver.
as §5

O=C(O)[C@H]1CSC(c2nc3cc(F)c(O)cc3s2)=N1 [5′-fluoroluciferin]
Relative Luminescence (% of 8.3 Luciferin) ([1]; pH 6.900, MOPS): 19% | Relative Luminescence (% of 8.3 Luciferin) ([1]; pH 7.133, MOPS): 22% | Relative Luminescence (% of 8.3 Luciferin) ([1]; pH 7.296, MOPS): 23% | Relative Luminescence (% of 8.3 Luciferin) ([1]; pH 7.303, HEPES): 22% | Relative Luminescence (% of 8.3 Luciferin) ([1]; pH 7.499, MOPS): 23% | Relative Luminescence (% of 8.3 Luciferin) ([1]; pH 7.521, HEPES): 25% | Relative Luminescence (% of 8.3 Luciferin) ([1]; pH 7.673, Tricine): 24% | Relative Luminescence (% of 8.3 Luciferin) ([1]; pH 7.720, HEPES): 27% | Relative Luminescence (% of 8.3 Luciferin) ([1]; pH 7.883, Tricine): 24% | Relative Luminescence (% of 8.3 Luciferin) ([1]; pH 7.892, HEPES): 26% | Relative Luminescence (% of 8.3 Luciferin) ([1]; pH 8.100, Tricine): 24% | Relative Luminescence (% of 8.3 Luciferin) ([1]; pH 8.327, Tricine): 22% | blue shift of luminescence λmax from regular luciferin [2]: approximately 25 nm | blue shift of luminescence λmax from regular luciferin ([2]; listed as 5′ fluoroluciferin): about 10 nm | ATP requirement of luciferase reaction [3]: saturated with ATP at a higher concentration than the reaction using luciferin

CCOC(=O)[C@H]1CSC(c2nc3ccc(O)cc3s2)=N1 [D-luciferin ethyl ester]
carboxylesterase substrate (porcine esterase): effective in this format

COC(=O)[C@H]1CSC(c2nc3ccc(O)cc3s2)=N1 [D-luciferin methyl ester]
carboxylesterase substrate (porcine esterase): effective in this format

O=C(OCc1cccnc1)[C@H]1CSC(c2nc3ccc(O)cc3s2)=N1 [D-luciferin picolinyl ester]
carboxylesterase substrate (porcine esterase): effective in this format

O=C(O)[C@H]1CSC(c2ccc3cc(Oc4ccc(C(F)(F)F)cc4[N+](=O)[O-])ccc3n2)=N1 [GST #3, 6-(2-nitro-4-trifluoromethyl-phenoxy)quinolinyl-luciferin]
Light Reading (S. japonica GST; reaction 2: pH 7.5, 50 μl 10 mM GSH, 10 μl S. japonica GST): 61.58 | Light Reading (S. japonica GST; reaction 4: pH 7.5, 30 μl 10 mM GSH, enzyme): 55.18 | Light Reading (S. japonica GST; reaction 6: pH 7.5, 10 μl 10 mM GSH, enzyme): 52.23 | Light Reading (S. japonica GST; reaction 8: pH 8.0, 50 μl 10 mM GSH, enzyme): 152.3 | Light Reading (S. japonica GST; reaction 10: pH 8.0, 30 μl 10 mM GSH, enzyme): 135.6 | Light Reading (S. japonica GST; reaction 12: pH 8.0, 10 μl 10 mM GSH, enzyme): 97.47 | Light Reading (S. japonica GST; reaction 14: pH 8.5, 50 μl 10 mM GSH, enzyme): 532.4 | Light Reading (S. japonica GST; reaction 16: pH 8.5, 30 μl 10 mM GSH, enzyme): 416.7 | Light Reading (S. japonica GST; reaction 18: pH 8.5, 10 μl 10 mM GSH, enzyme): 267.3 | GST preference (equine GST; light generating reaction): better substrate for equine GST in a light generating reaction than GST M1-1 and GST A1-1 | Light Output ([4]; 20 minutes after mixing): 0.976 | Light Output ([4]; 40 minutes after mixing): 1.099 | Light Output ([4]; at time of mixing): 1.01 | Light Reading ([4]; Table 6 reaction 1: pH 7.5, 50 μl 10 mM GSH): 26.3 | Light Reading ([4]; reaction 3: pH 7.5, 30 μl 10 mM GSH): 19.21 | Light Reading ([4]; reaction 5: pH 7.5, 10 μl 10 mM GSH): 10.73 | Light Reading ([4]; reaction 7: pH 8.0, 50 μl 10 mM GSH): 65.98 | Light Reading ([4]; reaction 9: pH 8.0, 30 μl 10 mM GSH): 48.41 | Light Reading ([4]; reaction 11: pH 8.0, 10 μl 10 mM GSH): 22.52 | Light Reading ([4]; reaction 13: pH 8.5, 50 μl 10 mM GSH): 295.2 | Light Reading ([4]; reaction 15: pH 8.5, 30 μl 10 mM GSH): 199.4 | Light Reading ([4]; reaction 17: pH 8.5, 10 μl 10 mM GSH): 97.89

COC(=O)[C@H]1CSC(c2ccc3cc(Oc4ccc(C(F)(F)F)cc4[N+](=O)[O-])ccc3n2)=N1 [GST-4, Methyl 6-(2-nitro-4-trifluoromethyl-phenoxy)quinolinyl-luciferin ester]
GST preference (GST M1-1; light generating reaction): better substrate for GST M1-1 in a light generating reaction than GST A1-1

CNCCCOc1ccc2c(C)cc(=O)oc2c1 [MAO-F3, 7-(4-methyl-3-N-methylaminopropoxy)coumarin]
no MAO fluorescent signal ([5]; [MAO-F3] 0.21 μM): 48 | no MAO fluorescent signal ([5]; [MAO-F3] 863.75 μM): 6461

CC(NC(C)(C)C)C(=O)c1cccc(Cl)c1 (centres unmarked) [bupropion]
IC50 (CYP2D6): 33 µM

Clc1ccccc1C(c1ccccc1)(c1ccccc1)n1ccnc1 [clotrimazole]
IC50 (CYP2D6): 22.6 µM

CC(C)N(CCC(C(N)=O)(c1ccccc1)c1ccccn1)C(C)C (centres unmarked) [disopyramide]
IC50 (CYP2D6): 220 µM

Acetyl Luciferin
Raw Data light reading (GST A1-1; 2 mM AL): 42,725 | Raw Data light reading (GST A1-1; 20 mM AL): 365,770 | Net Enzyme Signal (GST A1-1; Net 2 mM AL): 7,519 | Net Enzyme Signal (GST A1-1; Net 20 mM AL): 34,854 | Raw Data light reading (GST M1-1; 2 mM AL): 42,867 | Raw Data light reading (GST M1-1; 20 mM AL): 419,400 | Net Enzyme Signal (GST M1-1; Net 2 mM AL): 7,661 | Net Enzyme Signal (GST M1-1; Net 20 mM AL): 88,484 | Net Enzyme Signal (S. japonica GST; Net 2 mM AL): 91,082 | Net Enzyme Signal (S. japonica GST; Net 20 mM AL): 902,203 | Raw Data light reading (S. japonica GST; 2 mM AL): 126,288 | Raw Data light reading (S. japonica GST; 20 mM AL): 1,233,119 | Raw Data light reading (equine GST; 2 mM AL): 39,036 | Raw Data light reading (equine GST; 20 mM AL): 361,356 | Net Enzyme Signal (equine GST; Net 2 mM AL): 3,830 | Net Enzyme Signal (equine GST; Net 20 mM AL): 30,440 | Glutathione Signal ([4]; 2 mM AL): 14,557 | Glutathione Signal ([4]; 20 mM AL): 147,064 | Raw Data light reading ([4]; Buffer Alone, 2 mM AL, pH 7.5, 30 min): 20,649 | Raw Data light reading ([4]; Buffer Alone, 20 mM AL, pH 7.5, 30 min): 183,852 | Raw Data light reading ([4]; Glutathione Alone (2 mM), 2 mM AL): 35,206 | Raw Data light reading ([4]; Glutathione Alone (2 mM), 20 mM AL): 330,916
